The text below walks through data of patent publication US9328099B2, “Cyanomethylpyrazole carboxamides as janus kinase inhibitors” (Merck Sharp & Dohme Corp., priority 2011, dated 2016).

For one assay, the target named is JAK1 (Homo sapiens (Human), UniProt P23458). As to the kind of experiment: Jak Biochemical HTRF Assay, JAK1. The note with it: HTRF biochemical assay, GST-tagged catalytic domain; top concentration tested […]; read-out: JAK1 IC50. The source says:
(§1) Jak Biochemical HTRF Assay Protocol
(§2) Subsequent reagent additions employed an Agilent Bravo.

The next assay concerns the target JAK2 (Homo sapiens (Human), UniProt O60674). Kind of assay: Jak Biochemical HTRF Assay, JAK2. Conditions: HTRF biochemical assay, GST-tagged catalytic domain; top concentration tested […].
Source text: as §1, §2

Sequence of JAK2 (O60674 849-1124): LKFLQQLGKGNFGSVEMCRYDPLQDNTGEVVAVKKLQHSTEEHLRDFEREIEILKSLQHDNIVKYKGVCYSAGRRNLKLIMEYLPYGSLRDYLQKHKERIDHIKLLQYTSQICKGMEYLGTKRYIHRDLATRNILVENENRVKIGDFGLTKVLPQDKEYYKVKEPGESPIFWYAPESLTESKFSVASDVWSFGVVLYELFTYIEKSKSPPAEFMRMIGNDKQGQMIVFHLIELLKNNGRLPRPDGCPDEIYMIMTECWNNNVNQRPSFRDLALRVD
Sequence of JAK1 (P23458 875-1153): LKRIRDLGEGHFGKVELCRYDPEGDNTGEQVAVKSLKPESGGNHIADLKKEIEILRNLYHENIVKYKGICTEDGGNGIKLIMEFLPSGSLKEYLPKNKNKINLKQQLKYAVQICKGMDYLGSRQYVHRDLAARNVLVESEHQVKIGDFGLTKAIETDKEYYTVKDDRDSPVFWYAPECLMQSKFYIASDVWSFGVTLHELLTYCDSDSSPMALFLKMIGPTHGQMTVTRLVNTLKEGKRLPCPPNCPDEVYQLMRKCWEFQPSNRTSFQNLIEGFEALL

On to `N#CCC1(n2cc(C(N)=O)c(Nc3ccnc(F)c3)n2)CCC(NCc2ccc(O)cc2)CC1` (stereo not drawn) [Example 41-26, Cis or trans 1-{1-(cyanomethyl)-4-[(4-hydroxybenzyl)amino]cyclohexyl}-3-[(2-fluoropyridin-4-yl)amino]-1H-pyrazole-4-carboxamide], for which the figures for the half-inhibitory concentration (IC50) on JAK1 and on JAK2 were 16 nM and 759 nM, respectively.

As for `CC(C)(C)OC(=O)N1CCC(C(C#N)C2CC2)(n2cc(C(N)=O)c(Nc3ccc(F)cc3)n2)CC1` (stereo not drawn) [Example 5-2, tert-butyl 4-{4-carbamoyl-3-[(4-fluorophenyl)amino]-1H-pyrazol-1-yl}-4-[cyano(cyclopropyl)methyl] piperidine-1-carboxylate], the IC50 at JAK1 amounted to 271 nM; against JAK2 it was 738 nM.

As to `N#CCC1(n2cc(C(N)=O)c(Nc3ccccc3)n2)CCN(C(=O)c2ccc(Cl)cc2)CC1` [Example 34-19, 1-{1-[(4-chlorophenyl)carbonyl]-4-(cyanomethyl)piperidin-4-yl}-3-(phenylamino)-1H-pyrazole-4-carboxamide], the half-inhibitory concentration (IC50) on JAK1 was 11 nM; at JAK2 it was 184 nM.

In the case of `N#CCC1(n2cc(C(N)=O)c(Nc3ccccc3)n2)CCN(C(=O)C(c2ccccc2)c2ccccc2)CC1` [Example 34-33, 1-[4-(cyanomethyl)-1-(diphenylacetyl)piperidin-4-yl]-3-(phenylamino)-1H-pyrazole-4-carboxamide], the IC50 turned out to be 153 nM on JAK1 and 711 nM on JAK2.

`Cc1ccnc(N2CCC(CC#N)(n3cc(C(N)=O)c(Nc4ccc(F)cc4)n3)CC2)c1` [Example 3-31, 1-[4-(cyanomethyl)-1-(4-methylpyridin-2-yl)piperidin-4-yl]-3-[(4-fluorophenyl)amino]-1H-pyrazole-4-carboxamide]: the 50% inhibitory concentration (IC50) amounted to 1 nM at JAK1 and 44 nM at JAK2.

Take `N#CCC1(n2cc(C(N)=O)c(Nc3ccnc(F)c3)n2)CCC(NC2CCCCC2)CC1` (stereo not drawn) [Example 40-23, Cis or trans 1-[1-(cyanomethyl)-4-(cyclohexylamino)cyclohexyl]-3-[(2-fluoropyridin-4-yl)amino]-1H-pyrazole-4-carboxamide]: the IC50 worked out at 2 nM at JAK1 and 237 nM against JAK2.

On to `N#CCC1(n2cc(C(N)=O)c(Nc3ccnc(F)c3)n2)CCC(NC2CCCCC2)CC1` (stereo not drawn) [Example 40-51, Cis or trans 1-[1-(cyanomethyl)-4-(cyclohexylamino)cyclohexyl]-3-[(2-fluoropyridin-4-yl)amino]-1H-pyrazole-4-carboxamide], for which the half-maximal inhibitory concentration (IC50) on JAK1 is 598 nM; against JAK2, over 1500 nM.

For the compound `Cc1ccccc1-c1cccc(Nc2nn(C3(CC#N)CCN(C(=O)OC(C)(C)C)CC3)cc2C(N)=O)c1` [Example 15-7, tert-butyl 4-{4-carbamoyl-3-[(2′-methylbiphenyl-3-yl)amino]-1H-pyrazol-1-yl}-4-(cyanomethyl)piperidine-1-carboxylate], the results for the half-inhibitory concentration (IC50) on JAK1 and on JAK2 were 127 nM and 1480 nM, respectively.

Take `CC(C)(O)C(=O)N1CCC(CC#N)(n2cc(C(N)=O)c(Nc3ccnc(F)c3)n2)CC1` [Example 34-43, 1-[4-(cyanomethyl)-1-(2-hydroxy-2-methylpropanoyl)piperidin-4-yl]-3-[(2-fluoropyridin-4-yl)amino]-1H-pyrazole-4-carboxamide]: the IC50 on JAK1 was determined as 11 nM; against JAK2, 234 nM.

Regarding `N#CCC1(n2cc(C(N)=O)c(Nc3ccc(F)cc3)n2)CCN(C(=O)OC2CCC2)CC1` [Example 30-4, cyclobutyl 4-(4-carbamoyl-3-(4-fluorophenylamino)-1H-pyrazol-1-yl)-4-(cyanomethyl)piperidine-1-carboxylate], the concentration for half-maximal inhibition (IC50) on JAK1 stood at 0.9 nM; against JAK2, 33 nM.

As to `CC(C)(C)CC(C)(C)NC(=O)N1CC(CC#N)(n2cc(C(N)=O)c(Nc3ccccc3)n2)C1` [Example 38-29, 1-{3-(cyanomethyl)-1-[(1,1,3,3-tetramethylbutyl)carbamoyl]azetidin-3-yl}-3-(phenylamino)-1H-pyrazole-4-carboxamide], the IC50 turned out to be 185 nM on JAK1 and 1480 nM on JAK2.

In the case of `CC(=O)N1CCN(C2CCC(CC#N)(n3cc(C(N)=O)c(Nc4ccc(F)cc4)n3)CC2)CC1` (stereo not drawn) [Example 40-76, Cis or trans 1-[4-(4-acetylpiperazin-1-yl)-1-(cyanomethyl)cyclohexyl]-3-[(4-fluorophenyl)amino]-1H-pyrazole-4-carboxamide], the half-inhibitory concentration (IC50) was 13 nM at JAK1 and 225 nM on JAK2.

Consider `N#CCC1(n2cc(C(N)=O)c(Nc3ccc(F)cc3)n2)CCC(Nc2ccccc2)CC1` (stereo not drawn) [Example 40-103, Cis or trans 1-[1-(cyanomethyl)-4-(phenylamino)cyclohexyl]-3-[(4-fluorophenyl)amino]-1H-pyrazole-4-carboxamide], for which the IC50 was found to be 0.1 nM at JAK1 and 3 nM against JAK2.

For `N#CCC1(n2cc(C(N)=O)c(Nc3ccccc3)n2)CCN(S(=O)(=O)c2ccco2)CC1` [Example 37-4, 1-[4-(cyanomethyl)-1-(furan-2-ylsulfonyl)piperidin-4-yl]-3-(phenylamino)-1H-pyrazole-4-carboxamide], the IC50 on JAK1 turned out to be 0.6 nM; against JAK2, 2 nM.

Consider `N#CCC1(n2cc(C(N)=O)c(Nc3ccc(S(=O)(=O)C(F)F)cc3)n2)CCC(Nc2ccccc2)CC1` (stereo not drawn) [Example 40-102, Cis or trans 1-[1-(cyanomethyl)-4-(phenylamino)cyclohexyl]-3-({4-[(difluoromethyl)sulfonyl]phenyl}amino)-1H-pyrazole-4-carboxamide], for which the figures for the IC50 on JAK1 and on JAK2 were 0.05 nM and 1 nM, respectively.

`N#CCC1(n2cc(C(N)=O)c(Nc3ccnc(F)c3)n2)CCN(Cc2ccc(F)cn2)CC1` [Example 22-36, 1-{4-(cyanomethyl)-1-[(5-fluoropyridin-2-yl)methyl]piperidin-4-yl}-3-[(2-fluoropyridin-4-yl)amino]-1H-pyrazole-4-carboxamide]: the half-maximal inhibitory concentration (IC50) at JAK1 was determined as 2 nM; on JAK2 it was 97 nM.

For the compound `CS(=O)(=O)c1ccc(Nc2nn(C3(CC#N)CN(C(=O)Nc4cc(F)ccc4F)C3)cc2C(N)=O)cc1` [Example 38-42, 1-{3-(cyanomethyl)-1-[(2,5-difluorophenyl)carbamoyl]azetidin-3-yl}-3-{[4-(methylsulfonyl)phenyl]amino}-1H-pyrazole-4-carboxamide], the figures for the half-maximal inhibitory concentration (IC50) on JAK1 and on JAK2 were 19 nM and 237 nM, respectively.

Consider `N#CCC1(n2cc(C(N)=O)c(Nc3ccc(F)cc3)n2)CCC(Nc2ccccc2F)CC1` (stereo not drawn) [Example 40-58, Cis or trans 1-{1-(cyanomethyl)-4-[(2-fluorophenyl)amino]cyclohexyl}-3-[(4-fluorophenyl)amino]-1H-pyrazole-4-carboxamide], for which the figures for the half-inhibitory concentration (IC50) at JAK1 and against JAK2 were 0.2 nM and 7 nM, respectively.

As to `COC(=O)N1CCC(CC#N)(n2cc(C(N)=O)c(Nc3ccc(S(C)(=O)=O)cc3)n2)CC1` [Example 27-3, methyl 4-(4-carbamoyl-3-{[4-(methylsulfonyl)phenyl]amino}-1H-pyrazol-1-yl)-4-(cyanomethyl)piperidine-1-carboxylate], the half-inhibitory concentration (IC50) on JAK1 came out at 1 nM; on JAK2 it was 16 nM.

In the case of `N#CCC1(n2cc(C(N)=O)c(Nc3ccccc3)n2)CN(C(=O)Nc2ccc(F)cc2F)C1` [Example 38-28, 1-{3-(cyanomethyl)-1-[(2,4-difluorophenyl)carbamoyl]azetidin-3-yl}-3-(phenylamino)-1H-pyrazole-4-carboxamide], the IC50 on JAK1 amounted to 6 nM; against JAK2, 79 nM.

In the case of `Cc1ccncc1N1CCC(CC#N)(n2cc(C(N)=O)c(Nc3ccc(F)cc3)n2)CC1` [Example 3-33, 1-[4-(cyanomethyl)-1-(4-methylpyridin-3-yl)piperidin-4-yl]-3-[(4-fluorophenyl)amino]-1H-pyrazole-4-carboxamide], the 50% inhibitory concentration (IC50) was 7 nM at JAK1 and 102 nM at JAK2.

As to `N#CCC1(n2cc(C(N)=O)c(Nc3ccc(F)cc3)n2)CCC(Nc2cccc(F)c2)CC1` (stereo not drawn) [Example 40-3, Cis or trans 1-{1-(cyanomethyl)-4-[(3-fluorophenyl)amino]cyclohexyl}-3-[(4-fluorophenyl)amino]-1H-pyrazole-4-carboxamide], the concentration for half-maximal inhibition (IC50) is 119 nM on JAK1 and over 1500 nM against JAK2.

On to `CC(C)(C)OC(=O)N1CC[C@](CC#N)(n2cc(C(N)=O)c(Nc3ccc(F)cc3)n2)[C@@H](F)C1` (single isomer, unassigned) [Example 47-4, tert-butyl (3S,4R or 3R,4S)-4-{4-carbamoyl-3-[(4-fluorophenyl)amino]-1H-pyrazol-1-yl}-4-(cyanomethyl)-3-fluoropiperidine-1-carboxylate], for which the concentration for half-maximal inhibition (IC50) at JAK1 turned out to be 2 nM; against JAK2, 83 nM.

For the compound `Cc1ccc(NC(=O)N2CC(CC#N)(n3cc(C(N)=O)c(Nc4ccccc4)n3)C2)cc1F` [Example 38-37, 1-{3-(cyanomethyl)-1-[(3-fluoro-4-methylphenyl)carbamoyl]azetidin-3-yl}-3-(phenylamino)-1H-pyrazole-4-carboxamide], the figures for the concentration for half-maximal inhibition (IC50) at JAK1 and against JAK2 were 8 nM and 114 nM, respectively.

Consider `N#CCC1(n2cc(C(N)=O)c(Nc3ccccc3)n2)CCN(C(=O)c2ccsc2)CC1` [Example 34-16, 1-[4-(cyanomethyl)-1-(thiophen-3-ylcarbonyl)piperidin-4-yl]-3-(phenylamino)-1H-pyrazole-4-carboxamide], for which the results for the IC50 at JAK1 and on JAK2 were 2 nM and 35 nM, respectively.

As to `N#CCC1(n2cc(C(N)=O)c(Nc3ccc(F)cc3)n2)CCN(c2cccc(OCCO)n2)CC1` [Example 3-10, 1-{4-(cyanomethyl)-1-[6-(2-hydroxyethoxy)pyridin-2-yl]piperidin-4-yl}-3-[(4-fluorophenyl)amino]-1H-pyrazole-4-carboxamide], the half-maximal inhibitory concentration (IC50) worked out at 3 nM on JAK1 and 47 nM on JAK2.

`Cn1cc(-c2cncc(Nc3nn(C4(CC#N)CCN(C(=O)OCC(F)(F)F)CC4)cc3C(N)=O)c2)cn1` [Example 10-6, 2,2,2-trifluoroethyl 4-(4-carbamoyl-3-(5-(1-methyl-1H-pyrazol-4-yl)pyridinl-3-ylamino)-1H-pyrazol-1-yl)-4-(cyanomethyl)piperidine-1-carboxylate]: the IC50 at JAK1 came out at 0.8 nM; against JAK2, 71 nM.
